{"source": "patent US9221765B2", "about": "“Inhibition and dispersion of bacterial biofilms with benzimidazole derivatives” (North Carolina State University, priority 2009, dated 2015)", "key": {"S. epidermidis [1]": {"test_system": "S. epidermidis", "assay": "Inhibition of S. epidermidis biofilm formation (crystal violet)", "type": "cell-based, Staphylococcus epidermidis", "conditions": "Staphylococcus epidermidis", "protocol": "(§1) A dose-response study was then initiated in which both the IC50 and EC50 value of each compound towards the bacterial strains were determined (Table 1). Here, IC50 is defined as the concentration of compound that inhibits 50% biofilm development while EC50 is defined as the concentration of compound that disperses 50% of a pre-formed biofilm.\n(§2) Procedure to Determine the Inhibitory Effect of Test Compounds on E. faecium, MRSA, S. epidermidis, PAO1 and MDRAB Biofilm Formation:\n(§3) Inhibition assays were performed by taking an overnight culture of bacterial strain and subculturing it at an OD600 of 0.01 into the necessary media (brain heart infusion for E. faecium, tryptic soy broth with a 0.5% glucose supplement (TSBG) for MRSA, Luria-Bertani (LB) media for MDRAB, Luria-Bertani media without NaCl (LBNS) for PAO1 and tryptic soy broth with a 0.5% glucose supplement and a 3.0% NaCl supplement (TGN) for S. epidermidis. Stock solutions of predetermined concentrations of the test compound were then made in the necessary media. These stock solutions were aliquoted (100 μL) into the wells of the 96-well PVC microtiter plate. Sample plates were then wrapped in GLAD Press n′ Seal® followed by an incubation under stationary conditions for 24 h at 37° C. After incubation, the media was discarded from the wells and the plates were washed thoroughly with water. Plates were then stained with 100 μL of 0.1% solution of crystal violet (CV) and then incubated at ambient temperature for 30 min. Plates were washed with water again and the remaining stain was solubilized with 200 μL of 95% ethanol. A sample of 125 μL of solubilized CV stain from each well was transferred to the corresponding wells of a polystyrene microtiter dish. Biofilm inhibition was quantitated by measuring the OD540 of each well in which a negative control lane wherein no biofilm was formed served as a background and was subtracted out.\nas §3, with “2-(2-amino-1H-benzo[d]imidazol-6-ylcarbamoyl)-3,4,5,6-tetrachlorobenzoic acid hydrochloride” for “test compound”, “media. Samples were then doped with 10.0 μM FeSO4 with samples with no test compound to examine effects of 10.0 μM FeSO4 on biofilm formation.” for “media.”"}, "[2]": {"test_system": "E. faecium, MRSA and S. epidermidis", "assay": "Mitigating effects of iron on biofilm formation inhibition", "type": "cell-based", "conditions": "increasing Fe(II) concentration, 10.0 μM FeSO4, hydrochloride", "protocol": "Next the mechanistic basis of how compound 3 was able to inhibit and disperse bacterial biofilms was investigated. Iron levels are known to effect Gram-positive biofilm development (Deighton, M.; Borland, R. Infection and Immunity 1993, 61, 4473-4479) and were deemed a plausible driver of the observed anti-biofilm activity. To examine Fe(II) related antibiofilm behavior, a dose-dependent study was performed in which the ability of 3 to inhibit biofilm development was measured under increasing Fe(II) concentration. […]\nInhibition assays were performed by taking an overnight culture of bacterial strain and subculturing it at an OD600 of 0.01 into the necessary media (brain heart infusion for E. faecium, tryptic soy broth with a 0.5% glucose supplement (TSBG) for MRSA, Luria-Bertani (LB) media for MDRAB, Luria-Bertani media without NaCl (LBNS) for PAO1 and tryptic soy broth with a 0.5% glucose supplement and a 3.0% NaCl supplement (TGN) for S. epidermidis. Stock solutions of predetermined concentrations of the 2-(2-amino-1H-benzo[d]imidazol-6-ylcarbamoyl)-3,4,5,6-tetrachlorobenzoic acid hydrochloride were then made in the necessary media. […] Biofilm inhibition was quantitated by measuring the OD540 of each well in which a negative control lane wherein no biofilm was formed served as a background and was subtracted out."}, "S. epidermidis [3]": {"test_system": "S. epidermidis", "assay": "Dispersion of preformed S. epidermidis biofilm", "type": "cell-based, Staphylococcus epidermidis", "conditions": "concentration that disperses 50% of a pre-formed biofilm", "protocol": "as §1\nProcedure to Determine the Dispersal Effect of Test Compounds on E. faecium, MRSA and S. epidermidis Preformed Biofilms:\nDispersion assays were performed by taking an overnight culture of bacterial strain and subculturing it at an OD600 of 0.01 into the necessary media (brain heart infusion for E. faecium, tryptic soy broth with a 0.5% glucose supplement (TSBG) for MRSA and tryptic soy broth with a 0.5% glucose supplement and a 3.0% NaCl supplement (TGN) for S. epidermidis. The resulting bacterial suspension was aliquoted (100 μL) into the wells of a 96-well PVC microtiter plate. Plates were then wrapped in GLAD Press n′ Seal® followed by an incubation under stationary conditions at ambient temperature to establish the biofilms. After 24 h, the media was discarded from the wells and the plates were washed thoroughly with water. Stock solutions of predetermined concentrations of the test compound were then made in the necessary media. These stock solutions were aliquoted (100 μL) into the wells of the 96-well PVC microtiter plate with the established biofilms. Media alone was added to a subset of the wells to serve as a control. Sample Plates were then incubated for 24 h at 37° C. After incubation, the media was discarded from the wells and the plates were washed thoroughly with water. Plates were then stained with 100 μL of 0.1% solution of crystal violet (CV) and then incubated at ambient temperature for 30 min. Plates were washed with water again and the remaining stain was solubilized with 200 μL of 95% ethanol. A sample of 125 μL of solubilized CV stain from each well was transferred to the corresponding wells of a polystyrene microtiter dish. Biofilm dispersion was quantitated by measuring the OD540 of each well in which a negative control lane wherein no biofilm was formed served as a background and was subtracted out."}, "[4]": {"test_system": "vancomycin-resistant Enterococcus faecium (VRE)", "assay": "Inhibition of VRE (E. faecium) biofilm formation (crystal violet)", "type": "cell-based", "protocol": "as §1, §2, §3\nas §3, with “2-(2-amino-1H-benzo[d]imidazol-6-ylcarbamoyl)-3,4,5,6-tetrachlorobenzoic acid hydrochloride” for “test compound”, “media. Samples were then doped with 10.0 μM FeSO4 with samples with no test compound to examine effects of 10.0 μM FeSO4 on biofilm formation.” for “media.”"}}, "note": "Structures can show the parent of a compound that is named as a salt."}
{"smiles": "Nc1nc2ccc(NC(=O)c3c(Cl)c(Cl)c(Cl)c(Cl)c3C(=O)O)cc2[nH]1", "note": "[Compound 3, 2-(2-amino-1H-benzo[d]imidazol-6-ylcarbamoyl)-3,4,5,6-tetrachlorobenzoic acid hydrochloride]", "values": [{"measurement": "IC50", "setting": "S. epidermidis [1]", "result": 0.57, "unit": "µM"}, {"measurement": "effect of Fe(II) on biofilm inhibitory activity", "setting": "[2]", "result": "not affected by increasing Fe(II) concentrations"}, {"measurement": "effect of Fe(II) on biofilm inhibitory activity", "setting": "[2]; listed as 2-(2-amino-1H-benzo[d]imidazol-6-ylcarbamoyl)-3,4,5,6-tetrachlorobenzoic acid hy", "result": "no effect on biofilm inhibitory activity"}, {"measurement": "EC50", "setting": "S. epidermidis [3]; Staphylococcus epidermidis", "result": 7.25, "unit": "µM"}, {"measurement": "EC50", "setting": "S. epidermidis [3]; hydrochloride", "result": 7.3, "unit": "µM"}, {"measurement": "IC50", "setting": "[4]", "result": 1.4, "unit": "µM"}]}
